From patent publication US20130065922A1, “NOVEL AMIDES AS FUNGICIDES” (priority 2010, published 2013)
Read-outs that look alike come from different tables or passages of the source.

Tests used:
Phytophthora infestans = experiment: whole plant or invertebrate; type: in vivo; details: in Solanum lycopersicum, foliar, read-out: inhibit fungal infestation
[1] = test system: Blumeria graminis f. Sp. tritici (Erysiphe graminis f. Sp. tritici); experiment: Blumeria graminis f. Sp. tritici (Erysiphe graminis f. Sp. tritici)/Wheat/Leaf Disc Preventative (Powdery Mildew on Wheat); type: in vivo; details: foliar, read-out: inhibit fungal infestation
Pythium ultimum = experiment: Pythium ultimum/Liquid Culture (Seedling Damping Off); type: cell-based; details: Globisporangium ultimum, read-out: inhibit fungal infestation
Plasmopara viticola = experiment: whole plant or invertebrate; type: in vivo; details: foliar, read-out: inhibit fungal infestation
[2] = 200 ppm, wheat leaf segments cv. Kanzler, preventative, 6-8 days after application, untreated control infected to over 80%
[3] = 200 ppm, liquid culture (PDB), 24° C., growth inhibition photometrically 2-3 days after application

Structure (SMILES) | melting point [°C] | inhibition at 200 ppm [1, 2] [%] | further results
CCC(Oc1ccc2ncc(OC)cc2c1)C(=O)NC(C)(C#N)COC (stereo not drawn) | 122 to 124 | – | –
CCC(Oc1cc(C)c2ncc(SC)cc2c1)C(=O)NC(C)(C)C (stereo not drawn) | 119 to 121 | – | –
CCC(Oc1cc(C)c2ncc(SC)cc2c1)C(=O)NC1CCC1 (stereo not drawn) | 136 to 138 | – | –
CCC(Oc1cc(C)c2ncc(SC)cc2c1)C(=O)NC(C)C (stereo not drawn) | 132 to 134 | – | –
C#CC(C)(C)NC(=O)C(CC)Oc1cc(Cl)c2ncc(SC)cc2c1 (stereo not drawn) | 140 to 142 | – | –
CCC(Oc1cc(Cl)c2ncc(SC)cc2c1)C(=O)NC(C)C (stereo not drawn) | 143 to 145 | – | –
CCC(Oc1cc(Cl)c2ncc(SC)cc2c1)C(=O)NC(C)(C)C (stereo not drawn) | 134 to 136 | – | –
COC(Oc1cc(C)c2ncc(SC)cc2c1)C(=O)NC(C)(C)C (stereo not drawn) | 146 to 148 | – | –
COC(Oc1cc(C)c2ncc(SC)cc2c1)C(=O)NC1CCC1 (stereo not drawn) | 132 to 134 | – | –
C#CC(C)(C)NC(=O)C(OC)Oc1cc(C)c2ncc(SC)cc2c1 (stereo not drawn) | 124 to 127 | – | –
C#CC(C)(C)NC(=O)C(OC)Oc1cc(Cl)c2ncc(SC)cc2c1 (stereo not drawn) | 116 to 118 | – | –
COC(Oc1cc(Cl)c2ncc(SC)cc2c1)C(=O)NC(C)(C)C (stereo not drawn) | 125 to 127 | – | –
COC(Oc1cc(Cl)c2ncc(SC)cc2c1)C(=O)NC1CCC1 (stereo not drawn) | 128 to 130 | – | –
COC(Oc1cc(Cl)c2ncc(SC)cc2c1)C(=O)NC1(C)CCC1 (stereo not drawn) | 113 to 115 | – | –
COCC(C)(C#N)NC(=O)C(OC)Oc1cc(Cl)c2ncc(SC)cc2c1 (stereo not drawn) | 90 to 93 | – | –
C#CC(C)(C)NC(=O)C(OC)Oc1ccc2ncc(SC)cc2c1 (stereo not drawn) | 123 to 125 | – | –
COC(Oc1ccc2ncc(SC)cc2c1)C(=O)NC1(C)CCC1 (stereo not drawn) | 100 to 102 | – | –
CO/N=C/C(C)(C)NC(=O)C(Oc1ccc2ncc(OC)cc2c1)SC (stereo not drawn) [Compound 1, N-(2-Methoxyimino-1,1-dimethyl-ethyl)-2-(3-methoxy-quinolin-6-yloxy)-2-methylsulfanyl-acetamide] | 122 to 124 | ≥ 80 | inhibition at 200 ppm (Phytophthora infestans): ≥ 80%; inhibition at 200 ppm (Pythium ultimum; [3]): ≥ 80%
COc1cnc2ccc(OC(SC)C(=O)NC(C)(C)C)cc2c1 (stereo not drawn) [Compound 2, N-tert-Butyl-2-(3-methoxy-quinolin-6-yloxy)-2-methylsulfanyl-acetamide] | 110 to 115 | ≥ 80 | inhibition at 200 ppm (Phytophthora infestans): ≥ 80%; inhibition at 200 ppm (Pythium ultimum; [3]): ≥ 80%
COCC(C)(C#N)NC(=O)C(Oc1ccc2ncc(OC)cc2c1)SC (stereo not drawn) [Compound 3, N-(1-Cyano-2-methoxy-1-methyl-ethyl)-2-(3-methoxy-quinolin-6-yloxy)-2-methylsulfanyl-acetamide] | 75 to 77 | ≥ 80 | inhibition at 200 ppm (Pythium ultimum; [3]): ≥ 80%
CCC(Oc1ccc2ncc(OC)cc2c1)C(=O)NC(C)(C)/C=N/OC (stereo not drawn) [Compound 6, N-(2-Methoxyimino-1,1-dimethyl-ethyl)-2-(3-methoxy-quinolin-6-yloxy)-butyramide] | 87 to 89 | ≥ 80 | inhibition at 200 ppm (Pythium ultimum; [3]): ≥ 80%
C#CC(C)(C)NC(=O)C(CC)Oc1ccc2ncc(OC)cc2c1 (stereo not drawn) [Compound 7, N-(1,1-Dimethyl-prop-2-ynyl)-2-(3-methoxy-quinolin-6-yloxy)-butyramide] | 109 to 112 | ≥ 80 | inhibition at 200 ppm (Phytophthora infestans): ≥ 80%; inhibition at 200 ppm (Pythium ultimum; [3]): ≥ 80%

Structure (SMILES) | melting point [°C] | inhibition at 200 ppm [1, 2] [%] | further results
CO/N=C/C(C)(C)NC(=O)C(OC)Oc1ccc2ncc(OC)cc2c1 (stereo not drawn) [Compound 8, 2-Methoxy-N-(2-methoxyimino-1,1-dimethyl-ethyl)-2-(3-methoxy-quinolin-6-yloxy)-acetamide] | 100 to 106 | ≥ 80 | inhibition at 200 ppm (Phytophthora infestans): ≥ 80%; inhibition at 200 ppm (Pythium ultimum; [3]): ≥ 80%
C#CC(C)(C)NC(=O)C(OC)Oc1ccc2ncc(OC)cc2c1 (stereo not drawn) [Compound 9, N-(1,1-Dimethyl-prop-2-ynyl)-2-methoxy-2-(3-methoxy-quinolin-6-yloxy)-acetamide] | 124 to 127 | ≥ 80 | –
CCC(Oc1ccc2ncc(OC)cc2c1)C(=O)NC(C)(C)C (stereo not drawn) [Compound 12, N-tert-Butyl-2-(3-methoxy-quinolin-6-yloxy)-butyramide] | 131 to 133 | – | inhibition at 200 ppm (Phytophthora infestans): ≥ 80%; inhibition at 200 ppm (Pythium ultimum; [3]): ≥ 80%
CCOc1cnc2c(C)cc(OC(SC)C(=O)NC(C)(C)C)cc2c1 (stereo not drawn) [Compound 20, N-tert-Butyl-2-(3-ethoxy-8-methyl-quinolin-6-yloxy)-2-methylsulfanyl-acetamide] | 181 to 183 | – | inhibition at 200 ppm (Pythium ultimum; [3]): ≥ 80%
CC#CC(C)(C)NC(=O)C(Oc1cc(C)c2ncc(OCC)cc2c1)SC (stereo not drawn) [Compound 24, N-(1,1-Dimethyl-but-2-ynyl)-2-(3-ethoxy-8-methyl-quinolin-6-yloxy)-2-methylsulfanyl-acetamide] | 137 to 139 | – | inhibition at 200 ppm [1]: ≥ 80%; inhibition at 200 ppm (Pythium ultimum): ≥ 80%; inhibition at 200 ppm (Plasmopara viticola): ≥ 80%
CCC(Oc1ccc2ncc(SC)cc2c1)C(=O)NC(C)C (stereo not drawn) [Compound 28, N-Isopropyl-2-(3-methylsulfanyl-quinolin-6-yloxy)-butyramide] | 112 to 115 | – | inhibition at 200 ppm (Pythium ultimum; [3]): ≥ 80%
CO/N=C/C(C)(C)NC(=O)C(Oc1cc(Cl)c2ncc(SC)cc2c1)SC (stereo not drawn) [Compound 31, 2-(8-Chloro-3-methylsulfanyl-quinolin-6-yloxy)-N-(2-methoxyimino-1,1-dimethyl-ethyl)-2-methylsulfanyl-acetamide] | 168 to 170 | – | inhibition at 200 ppm (Pythium ultimum; [3]): ≥ 80%; inhibition at 200 ppm (Plasmopara viticola): ≥ 80%
CCC(Oc1cc(Cl)c2ncc(SC)cc2c1)C(=O)NC(C)(C)/C=N/OC (stereo not drawn) [Compound 39, 2-(8-Chloro-3-methylsulfanyl-quinolin-6-yloxy)-N-(2-methoxyimino-1,1-dimethyl-ethyl)-butyramide] | 119 to 121 | – | inhibition at 200 ppm (Plasmopara viticola): ≥ 80%
CO/N=C/C(C)(C)NC(=O)C(OC)Oc1cc(C)c2ncc(SC)cc2c1 (stereo not drawn) [Compound 43, 2-Methoxy-N-(2-methoxyimino-1,1-dimethyl-ethyl)-2-(8-methyl-3-methylsulfanyl-quinolin-6-yloxy)-acetamide] | 109 to 111 | – | inhibition at 200 ppm (Plasmopara viticola): ≥ 80%
CC#CC(C)(C)NC(=O)C(OC)Oc1cc(C)c2ncc(SC)cc2c1 (stereo not drawn) [Compound 46, N-(1,1-Dimethyl-but-2-ynyl)-2-methoxy-2-(8-methyl-3-methylsulfanyl-quinolin-6-yloxy)-acetamide] | 102 to 104 | – | inhibition at 200 ppm (Plasmopara viticola): ≥ 80%
CO/N=C/C(C)(C)NC(=O)C(OC)Oc1cc(Cl)c2ncc(SC)cc2c1 (stereo not drawn) [Compound 47, 2-(8-Chloro-3-methylsulfanyl-quinolin-6-yloxy)-2-methoxy-N-(2-methoxyimino-1,1-dimethyl-ethyl)-acetamide] | 121 to 123 | ≥ 80 | inhibition at 200 ppm (Plasmopara viticola): ≥ 80%
CC#CC(C)(C)NC(=O)C(OC)Oc1cc(Cl)c2ncc(SC)cc2c1 (stereo not drawn) [Compound 48, 2-(8-Chloro-3-methylsulfanyl-quinolin-6-yloxy)-N-(1,1-dimethyl-but-2-ynyl)-2-methoxy-acetamide] | 90 to 92 | – | inhibition at 200 ppm (Plasmopara viticola): ≥ 80%
COCC#CC(C)(C)NC(=O)C(OC)Oc1cc(Cl)c2ncc(SC)cc2c1 (stereo not drawn) [Compound 49, 2-(8-Chloro-3-methylsulfanyl-quinolin-6-yloxy)-2-methoxy-N-(4-methoxy-1,1-dimethyl-but-2-ynyl)-acetamide] | 85 to 87 | – | inhibition at 200 ppm (Plasmopara viticola): ≥ 80%
COC(Oc1cc(Cl)c2ncc(SC)cc2c1)C(=O)NC(C)C (stereo not drawn) [Compound 52] | 115 to 118 | ≥ 80 | –
CO/N=C/C(C)(C)NC(=O)C(OC)Oc1ccc2ncc(SC)cc2c1 (stereo not drawn) [Compound 56, 2-Methoxy-N-(2-methoxyimino-1,1-dimethyl-ethyl)-2-(3-methylsulfanyl-quinolin-6-yloxy)-acetamide] | 98 to 100 | – | inhibition at 200 ppm (Phytophthora infestans): ≥ 80%; inhibition at 200 ppm (Pythium ultimum; [3]): ≥ 80%
CC#CC(C)(C)NC(=O)C(OC)Oc1ccc2ncc(SC)cc2c1 (stereo not drawn) [Compound 57, N-(1,1-Dimethyl-but-2-ynyl)-2-methoxy-2-(3-methylsulfanyl-quinolin-6-yloxy)-acetamide] | 63 to 65 | – | inhibition at 200 ppm [1]: ≥ 80%
COCC#CC(C)(C)NC(=O)C(OC)Oc1ccc2ncc(SC)cc2c1 (stereo not drawn) [Compound 58, 2-Methoxy-N-(4-methoxy-1,1-dimethyl-but-2-ynyl)-2-(3-methylsulfanyl-quinolin-6-yloxy)-acetamide] | 74 to 76 | – | inhibition at 200 ppm [1]: ≥ 80%
COC(Oc1ccc2ncc(SC)cc2c1)C(=O)NC(C)(C)C (stereo not drawn) [Compound 60, N-tert-Butyl-2-methoxy-2-(3-methylsulfanyl-quinolin-6-yloxy)-acetamide] | 119 to 121 | ≥ 80 | –
COC(Oc1ccc2ncc(SC)cc2c1)C(=O)NC1CCC1 (stereo not drawn) [Compound 61, N-Cyclobutyl-2-methoxy-2-(3-methylsulfanyl-quinolin-6-yloxy)-acetamide] | 80 to 82 | ≥ 80 | –
CCOCC(C)(C)NC(=O)C(Oc1ccc2ncc(SC)cc2c1)SC (stereo not drawn) [Compound 66, N-(2-Ethoxy-1,1-dimethyl-ethyl)-2-methylsulfanyl-2-(3-methylsulfanyl-quinolin-6-yloxy)-acetamide] | – | ≥ 80 | –
CSc1cnc2ccc(OC(SC)C(=O)NC(C)(C)CCF)cc2c1 (stereo not drawn) [Compound 67, N-(3-Fluoro-1,1-dimethyl-propyl)-2-methylsulfanyl-2-(3-methylsulfanyl-quinolin-6-yloxy)-acetamide] | – | ≥ 80 | inhibition at 200 ppm (Plasmopara viticola): ≥ 80%
